From patent publication US20030124023A1, “Method of sterilizing heart valves” (priority 2001, published 2003) come the findings set out here.

Usually solubility stands for the concentration that dissolves in the medium under given conditions.

Data set [1] has as its system porcine AV heart valve cusps. Put plainly: Example 3: HPLC analysis of frozen gamma irradiated AV heart valve cusps. The following applies: 30 kGy, 1.584 kGy/hr, −20° C. The protocol:
In this experiment, frozen porcine AV heart valves soaked in various solvents were gamma irradiated to a total dose of 30 kGy at 1.584 kGy/hr at −20° C. 5. Added 1.0 ml of the following to two of each of two tubes: dPBS, 50% DMSO and 50% DMSO with 200 mM sodium ascorbate (2M sodium ascorbate stock was diluted as follows: 400 μl (2M)+1.6 ml water+2ml 100% DMSO). 6. Incubated tubes at 4° C. with nutating for ˜46 hours. 8. All vials were frozen on dry ice. 9. Frozen samples were then irradiated at −20° C. at a rate of 1.584 kGy/hr to a total dose of 30 kGy.

Data set [2] concerns porcine heart valve cusps. The data set is described as follows: Example 2: quantification of collagen crosslinks (pyd) by HPLC after gamma irradiation. Here is the method:
In this experiment, the effects of gamma irradiation were determined on porcine heart valve cusps in the presence of 50% DMSO and, optionally, a stabilizer, and in the presence of polypropylene glycol 400 (PPG400). 1.6 ml of a solution (stabilizer mixture or PPG400) was added to each sample and then the sample was incubated at 4° C. for 2.5 days. Valves and 1 ml of the solution in which they were incubated were then transferred into 2 ml irradiation vials. Each sample was irradiated with gamma irradiation at a rate of 1.723 kGy/hr at 3.6° C. to a total dose of 25 kGy. 3. Weighed the samples, transferred them to hydrolysis vials and then added 6 N HCl at a volume of 20 mg tissue/ml HCl: 5. Samples were hydrolyzed at 110° C. for approximately 23 hours. 13. Eluted crosslinks with 5 ml 2 N HCl into a low binding tube. 50 ml 2 N HCl:8.6 ml concentrated HCl adjusted to a volume of 50 ml with Nerl H2O. 1. Prepared 100-200 μl 1× solution in 1% heptafluorobutyric acid (HFBA). 2. Injected 50 μl on C18 HPLC column equilibrated with mobile phase. 3. Spectrofluorometer was set for excitation at 295 nm and emission at 395 nm. 4. Calculated the integrated fluorescence of Internal-Pyridinoline (Int-Pyd) per 1 μl of 1× solution of Int-Pyd.

The nature of a further data set: physchem. Here is the method:
A. Preparation of Stabilizer Solutions:
The 0.5 M solution was not soluble; therefore an additional 2 ml of PPG was added.
An additional 1 ml PPG was added and further water bath sonicated.
The 0.5M solution was soluble after a 20-30 minute water bath sonication.
Very soluble after 10 minute water bath sonication.

The nature of data set [3]: Solubility of coumaric acid in DMSO/water (50% DMSO). In kind it is physicochemical. The protocol:
All stabilizers were prepared so that the final concentration of DMSO was 50%. Dissolve 34.7 mg in 106 μl DMSO, pH ≈3.0 138 μl H2O was added.

Consider `C[S+](C)[O-]` [DMSO, dimethylsulfoxide], for which the “HPLC profile, irradiated versus not irradiated” value in data set [1] (20% DMSO) is “reproduced these peaks more faithfully”; in data set [1] (50% DMSO) it was “slightly more effective”; in data set [2] (25 kGy, 1.723 kGy/hr, 3.6° C., DMSO at 50%), “less effective”. Besides, the “Area of Pyd Peak” value in data set [2] (0 kGy (not irradiated)) is 87880; in data set [2] (25 kGy, 1.723 kGy/hr, 3.6° C.), 49030.

Take `CCCOC(=O)c1cc(O)c(O)c(O)c1` [n-Propyl Gallate]: in the data set “physchem”, the “solubility of stabilizer stock in PPG” value is listed as “soluble”.

For `Cc1c(C)c2c(c(C)c1O)CCC(C)(C(=O)O)O2` (centres unmarked) [Trolox C, 6-hydroxy-2,5,7,8-tetramethylchroma-2 carboxylic acid], the “solubility of stabilizer stock in PPG” value in the data set “physchem” is listed as “not soluble”. The solubility in “physchem” (25 °C, organic solvent or mixture, thermodynamic from solid) is not below 125 mM.

For `O=C(O)/C=C/c1ccc(O)cc1` [Coumaric Acid], the “solubility in DMSO after addition of H2O” value in data set [3] (34.7 mg in 106 μl DMSO, pH ≈3.0, 138 μl H2O added) is “precipitated out of solution”. Besides, the “solubility in DMSO/H2O after pH adjustment” value in data set [3] (pH adjusted to 7.5 with 1 N NaOH) is given as “went back into solution”. For the same compound, the “solubility of stabilizer stock in PPG” value in the data set “physchem” is recorded as “not 100% soluble”.
